Measurements reported in ChEMBL document CHEMBL3045319, “Synthesis, antitumor activity, and structureactivity relationship of some 4H-pyrano[3,2-h]quinoline and 7H-pyrimido[4,5:6,5]pyrano[3,2-h]quinoline derivatives” (Med Chem Res, 2013).
In brackets after ≈: the same amount, converted by molar mass.

Legend:
HepG2 [1] = assay: Cytotoxicity against Homo sapiens (human) HepG2 cells after 48 hr by MTT assay; type: functional, cell-based
[2] = Cytotoxicity against Homo sapiens (human) HCT cells after 48 hr by MTT assay; type: functional, cell-based
HepG2 [3] = assay: Cytotoxicity against Homo sapiens (human) HepG2 cells assessed as cell viability at 3.125 ug/ml after 48 hr by MTT assay relative to control; type: functional; details: HepG2, 48 h, read-out: Activity
MCF7 [4] = assay: Cytotoxicity against Homo sapiens (human) MCF7 cells assessed as cell viability at 6.25 ug/ml after 48 hr by MTT assay relative to control; type: functional; details: MCF7, 48 h, read-out: Activity
MCF7 [5] = assay: Cytotoxicity against Homo sapiens (human) MCF7 cells assessed as cell viability at 50 ug/ml after 48 hr by MTT assay relative to control; type: functional; details: MCF7, 48 h, read-out: Activity
MCF7 [6] = assay: Cytotoxicity against Homo sapiens (human) MCF7 cells assessed as cell viability at 1.56 ug/ml after 48 hr by MTT assay relative to control; type: functional; details: MCF7, 48 h, read-out: Activity
[7] = Cytotoxicity against Homo sapiens (human) HCT cells assessed as cell viability at 25 ug/ml after 48 hr by MTT assay relative to control; type: functional; details: read-out: Activity
MCF7 [8] = assay: Cytotoxicity against Homo sapiens (human) MCF7 cells assessed as cell viability at 12.5 ug/ml after 48 hr by MTT assay relative to control; type: functional; details: MCF7, 48 h, read-out: Activity
MCF7 [9] = assay: Cytotoxicity against Homo sapiens (human) MCF7 cells assessed as cell viability at 3.125 ug/ml after 48 hr by MTT assay relative to control; type: functional; details: MCF7, 48 h, read-out: Activity
[10] = Cytotoxicity against Homo sapiens (human) HCT cells assessed as cell viability at 3.125 ug/ml after 48 hr by MTT assay relative to control; type: functional; details: read-out: Activity
MCF7 [11] = assay: Cytotoxicity against Homo sapiens (human) MCF7 cells after 48 hr by MTT assay; type: functional, cell-based; details: MCF7, 48 h
[12] = Cytotoxicity against Homo sapiens (human) HCT cells assessed as cell viability at 12.5 ug/ml after 48 hr by MTT assay relative to control; type: functional; details: read-out: Activity
[13] = Cytotoxicity against Homo sapiens (human) HCT cells assessed as cell viability at 1.56 ug/ml after 48 hr by MTT assay relative to control; type: functional; details: read-out: Activity
HepG2 [14] = assay: Cytotoxicity against Homo sapiens (human) HepG2 cells assessed as cell viability at 25 ug/ml after 48 hr by MTT assay relative to control; type: functional; details: HepG2, 48 h, read-out: Activity
HepG2 [15] = assay: Cytotoxicity against Homo sapiens (human) HepG2 cells assessed as cell viability at 12.5 ug/ml after 48 hr by MTT assay relative to control; type: functional; details: HepG2, 48 h, read-out: Activity
HepG2 [16] = assay: Cytotoxicity against Homo sapiens (human) HepG2 cells assessed as cell viability at 50 ug/ml after 48 hr by MTT assay relative to control; type: functional; details: HepG2, 48 h, read-out: Activity
HepG2 [17] = assay: Cytotoxicity against Homo sapiens (human) HepG2 cells assessed as cell viability at 1.56 ug/ml after 48 hr by MTT assay relative to control; type: functional; details: HepG2, 48 h, read-out: Activity
MCF7 [18] = assay: Cytotoxicity against Homo sapiens (human) MCF7 cells assessed as cell viability at 25 ug/ml after 48 hr by MTT assay relative to control; type: functional; details: MCF7, 48 h, read-out: Activity
[19] = Cytotoxicity against Homo sapiens (human) HCT cells assessed as cell viability at 50 ug/ml after 48 hr by MTT assay relative to control; type: functional; details: read-out: Activity
[20] = Cytotoxicity against Homo sapiens (human) HCT cells assessed as cell viability at 6.25 ug/ml after 48 hr by MTT assay relative to control; type: functional; details: read-out: Activity
HepG2 [21] = assay: Cytotoxicity against Homo sapiens (human) HepG2 cells assessed as cell viability at 6.25 ug/ml after 48 hr by MTT assay relative to control; type: functional; details: HepG2, 48 h, read-out: Activity
[22] = Homo sapiens, HepG2, 48 h, read-out: IC50

Structure (SMILES) | IC50 [2] [µg/mL] | viability at 3.125 µg/mL (HepG2 [3]) [%] | viability at 6.25 µg/mL (MCF7 [4]) [%] | viability at 50 µg/mL (MCF7 [5]) [%] | viability at 1.56 µg/mL (MCF7 [6]) [%] | viability at 25 µg/mL [7] [%] | viability at 12.5 µg/mL (MCF7 [8]) [%] | viability at 3.125 µg/mL (MCF7 [9]) [%] | viability at 3.125 µg/mL [10] [%] | IC50 (MCF7 [11]) [µg/mL] | viability at 12.5 µg/mL [12] [%] | viability at 1.56 µg/mL [13] [%] | viability at 25 µg/mL (HepG2 [14]) [%] | viability at 12.5 µg/mL (HepG2 [15]) [%] | viability at 50 µg/mL (HepG2 [16]) [%] | viability at 1.56 µg/mL (HepG2 [17]) [%] | viability at 25 µg/mL (MCF7 [18]) [%] | viability at 50 µg/mL [19] [%] | viability at 6.25 µg/mL [20] [%] | viability at 6.25 µg/mL (HepG2 [21]) [%] | other results
Cc1ccc2ccc3c(c2n1)OC(/N=C/N)=C(C#N)C3c1ccc(Br)cc1 (centres undefined) | 6.2 (≈ 14.8 µM) | 89.3 | 89.8 | 56.2 | 100 | 34.1 | 81.2 | 97.3 | 65 | > 50 | 42.9 | 86.9 | 60.7 | 65.5 | 52.3 | 98.8 | 69.6 | 24.8 | 49.8 | 81.2 | IC50 (HepG2 [1]; [22]): > 50 µg/mL
CN(C)/C=N/C1=C(C#N)C(c2ccc(Cl)cc2)c2ccc3cccnc3c2O1 (centres undefined) | 49.4 (≈ 127 µM) | 98.3 | 83.5 | 37.7 | 98.7 | 71.3 | 75.6 | 92 | 98.5 | 29.3 (≈ 75.3 µM) | 77.7 | 100 | 77.8 | 85.6 | 48.1 | 100 | 58 | 49.5 | 88.1 | 93 | IC50 (HepG2 [1]; [22]): 47.9 µg/mL (≈ 123 µM)
N#CC1=C(/N=C/N)Oc2c(ccc3cccnc23)C1c1ccc(Cl)cc1 (centres undefined) | 6.8 (≈ 18.8 µM) | 87.4 | 67.4 | 23.1 | 91.3 | 21.8 | 43.6 | 79.7 | 80.2 | 10.5 (≈ 29.1 µM) | 26.3 | 94.9 | 43.4 | 63.9 | 35.8 | 96.6 | 37.5 | 18.7 | 52.4 | 76.7 | IC50 (HepG2 [1]; [22]): 23.6 µg/mL (≈ 65.4 µM)
N#CC1=C(N)Oc2c(ccc3cccnc23)C1c1ccc(Br)cc1 (centres undefined) | 43.7 (≈ 116 µM) | 100 | 75.7 | 39.1 | 94.8 | 78.4 | 70 | 83.9 | 100 | 34.8 (≈ 92 µM) | 91.2 | 100 | 96.3 | 98.3 | 91.8 | 100 | 58.9 | 42.4 | 97.8 | 100 | IC50 (HepG2 [1]; hepg2): Not Active
